target: human LPA1 receptor (Homo sapiens (Human), UniProt Q92633); assay: Beta-arrestin recruitment assay to determine IC50 values for human LPAR1; type: cell-based; conditions: antagonist mode, Tango EDG2-bla U2OS cells, LPA 18:1 500 nM final
Description: Beta-Arrestin Recruitment Assay to Determine IC50 Values for Human LPAR1
The Tango™ EDG2-bla U2OS cells are obtained from Invitrogen. These cells contain the human LPA1 receptor cDNA linked to a TEV protease site and a Gal4-VP16 transcription factor integrated into the Tango™ GPCR-bla U2OS parental cell line. This parental cell line stably expresses a beta-arrestin/TEV protease fusion protein and the beta-lactamase (bla) reporter gene under the control of a UAS response element. Upon LPA (agonist) binding, LPA1 receptor gets activated, leading to arrestin-protease recruitment and proteolytic release of the transcription factor: The transcription factor then regulates transcription of a beta-lactamase reporter construct, which is measured upon addition of the live-cell substrate.
10′000 Tango™ EDG2-bla U2OS cells are seeded in a 384-well black with clear bottom plate in 30 μl Freestyle 293 Expression Medium (Invitrogen) and incubated for 20 h at 37° C., 5% CO2. […] IC50 is the concentration of antagonist inhibiting 50% of the maximal response.

human LPA1 receptor, sequence (Q92633 whole entry): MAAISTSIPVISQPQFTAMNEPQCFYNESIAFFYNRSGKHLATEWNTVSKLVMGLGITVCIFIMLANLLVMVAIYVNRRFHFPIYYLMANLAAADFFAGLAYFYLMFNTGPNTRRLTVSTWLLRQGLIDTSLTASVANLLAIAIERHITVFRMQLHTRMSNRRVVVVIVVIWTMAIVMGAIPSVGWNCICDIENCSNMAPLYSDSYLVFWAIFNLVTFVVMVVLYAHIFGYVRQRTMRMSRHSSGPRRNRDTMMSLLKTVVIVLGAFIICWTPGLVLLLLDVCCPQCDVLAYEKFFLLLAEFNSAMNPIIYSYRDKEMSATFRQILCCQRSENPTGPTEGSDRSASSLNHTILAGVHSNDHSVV

| Compound | IC50 |
| --- | --- |
| Cc1ccc(NC(=O)C2(c3ccccc3C(C)C)CN(C(=O)C[C@H]3COCCN3)C2)c(OC(F)F)n1 [Ex 12-44, (S)-N-(2-(difluoromethoxy)-6-methylpyridin-3-yl)-3-(2-isopropylphenyl)-1-(2-(morpholin-3-yl)acetyl)azetidine-3-carboxamide] | 79 nM |
| Cc1ccc(NC(=O)C2(c3ccccc3C(C)C)CN(C(=O)Cn3cnnc3)C2)c(OC(F)F)n1 [Ex 12-23, 1-(2-(4H-1,2,4-triazol-4-yl)acetyl)-N-(2-(difluoromethoxy)-6-methylpyridin-3-yl)-3-(2-isopropylphenyl)azetidine-3-carboxamide] | 21 nM |
| CC(C)c1ccccc1C1(C(=O)Nc2cccnc2OC(F)F)CN(S(=O)(=O)CCC(=O)O)C1 [Ex 13-10, 3-((3-((2-(difluoromethoxy)pyridin-3-yl)carbamoyl)-3-(2-isopropylphenyl)azetidin-1-yl)sulfonyl)propanoic acid] | 20 nM |
| Cc1ccc(NC(=O)C2(c3ccccc3C3CCC3)CN(C(=O)CC(C)(C)C(=O)O)C2)c(OC(F)F)n1 [Ex 31-2, 4-(3-(2-cyclobutylphenyl)-3-((2-(difluoromethoxy)-6-methylpyridin-3-yl)carbamoyl)azetidin-1-yl)-2,2-dimethyl-4-oxobutanoic acid] | 6 nM |
| Cc1ccc(NC(=O)C2(c3ccccc3C(C)C)CN(C(=O)c3nnn[nH]3)C2)c(OC(F)F)n1 [Ex 12-18, N-(2-(difluoromethoxy)-6-methylpyridin-3-yl)-3-(2-isopropylphenyl)-1-(1H-tetrazole-5-carbonyl)azetidine-3-carboxamide] | 25 nM |
| Cc1ccc(NC(=O)C2(c3ccccc3C(C)C)CN(C(=O)CCNCCO)C2)c(OC(F)F)n1 [Ex 12-60, N-(2-(difluoromethoxy)-6-methylpyridin-3-yl)-1-(3-((2-hydroxyethyl)amino)propanoyl)-3-(2-isopropylphenyl)azetidine-3-carboxamide] | 58 nM |
| Cc1ccc(NC(=O)C2(c3ccccc3C(C)C)CN(C(=O)NC3(C(=O)O)CC3)C2)c(OC(F)F)n1 [Ex 17-11, 1-(3-((2-(difluoromethoxy)-6-methylpyridin-3-yl)carbamoyl)-3-(2-isopropylphenyl)azetidine-1-carboxamido)cyclopropane-1-carboxylic acid] | 46 nM |
| CCCOc1nc(C)ccc1NC(=O)C1(c2ccccc2C(C)C)CN(S(N)(=O)=O)C1 [Ex 59, 3-(2-isopropylphenyl)-N-(6-methyl-2-propoxypyridin-3-yl)-1-sulfamoylazetidine-3-carboxamide] | 270 nM |
| CCOC(=O)C1(NC(=O)N2CC(C(=O)Nc3ccc(C)nc3OC(F)F)(c3ccccc3C(C)C)C2)CC1 [Ex 17-10, ethyl 1-(3-((2-(difluoromethoxy)-6-methylpyridin-3-yl)carbamoyl)-3-(2-isopropylphenyl)azetidine-1-carboxamido)cyclopropane-1-carboxylate] | 13 nM |
| COCCNCC(=O)N1CCC(C(=O)Nc2ccc(C)nc2OC(F)F)(c2ccccc2C(C)C)CC1 [Ex 12-48, N-(2-(difluoromethoxy)-6-methylpyridin-3-yl)-4-(2-isopropylphenyl)-1-((2-methoxyethyl)glycyl)piperidine-4-carboxamide] | 9 nM |
| N-(2-(difluoromethoxy)-6-methylpyridin-3-yl)-1-(3-(hydroxyamino)propanoyl)-3-(2-isopropylphenyl)azetidine-3-carboxamide [Ex 12-133] | 140 nM |
| Cc1ccc(NC(=O)C2(c3ccccc3C(C)C)CN(C(=O)CCC(O)C(F)(F)F)C2)c(OC(F)F)n1 (stereo not drawn) [Ex 12-120, N-(2-(difluoromethoxy)-6-methylpyridin-3-yl)-3-(2-isopropylphenyl)-1-(5,5,5-trifluoro-4-hydroxypentanoyl)azetidine-3-carboxamide] | 11 nM |
| Cc1ccc(NC(=O)C2(c3ccccc3C(C)C)CN(C(=O)CCOCCOCCO)C2)c(OC(F)F)n1 [Ex 12-51, N-(2-(difluoromethoxy)-6-methylpyridin-3-yl)-1-(3-(2-(2-hydroxyethoxy)ethoxy)propanoyl)-3-(2-isopropylphenyl)azetidine-3-carboxamide] | 360 nM |
| Cc1ccc(NC(=O)C2(c3ccccc3C(C)C)CN(c3ncc(C(=O)O)cn3)C2)c(OC(F)F)n1 [Ex 18-5, 2-(3-((2-(difluoromethoxy)-6-methylpyridin-3-yl)carbamoyl)-3-(2-isopropylphenyl)azetidin-1-yl)pyrimidine-5-carboxylic acid] | 11 nM |
| Cc1ccc(NC(=O)C2(c3ccccc3C(C)C)CN(C(=O)OCC3(C(=O)O)CC3)C2)c(OC(F)F)n1 [Ex 14-12, 1-(((3-((2-(difluoromethoxy)-6-methylpyridin-3-yl)carbamoyl)-3-(2-isopropylphenyl)azetidine-1-carbonyl)oxy)methyl)cyclopropane-1-carboxylic acid] | 5 nM |
| COC(=O)C(C)(C)CS(=O)(=O)N1CC(C(=O)Nc2ccc(C)nc2OC(F)F)(c2ccccc2C(C)C)C1 [Ex 13-11, methyl 3-((3-((2-(difluoromethoxy)-6-methylpyridin-3-yl)carbamoyl)-3-(2-isopropylphenyl)azetidin-1-yl)sulfonyl)-2,2-dimethylpropanoate] | 366 nM |
| COC(=O)[C@@H](C)NC(=O)N1CC(C(=O)Nc2ccc(C)nc2OC(F)F)(c2ccccc2C(C)C)C1 [Ex 17-23, methyl (3-((2-(difluoromethoxy)-6-methylpyridin-3-yl)carbamoyl)-3-(2-isopropylphenyl)azetidine-1-carbonyl)-D-alaninate] | 5 nM |
| COc1ccc(C(C)C)c(C2(C(=O)Nc3ccc(C)nc3OC(F)F)CNC2)c1 [Ex 38, N-(2-(difluoromethoxy)-6-methylpyridin-3-yl)-3-(2-isopropyl-5-methoxyphenyl)azetidine-3-carboxamide] | 287 nM |
| CC(=O)N1CCC(CC(=O)N2CC(C(=O)Nc3ccc(C)nc3OC(F)F)(c3ccccc3C(C)C)C2)CC1 [Ex 12-137, 1-(2-(1-acetylpiperidin-4-yl)acetyl)-N-(2-(difluoromethoxy)-6-methylpyridin-3-yl)-3-(2-isopropylphenyl)azetidine-3-carboxamide] | 225 nM |
| Cc1ccc(NC(=O)C2(c3ccccc3C(C)C)CN(C(=O)CCCc3nnn[nH]3)C2)c(OC(F)F)n1 [Ex 12-30, 1-(4-(1H-tetrazol-5-yl)butanoyl)-N-(2-(difluoromethoxy)-6-methylpyridin-3-yl)-3-(2-isopropylphenyl)azetidine-3-carboxamide] | 25 nM |
| Cc1ccc(NC(=O)C2(c3ccccc3C(C)C)CN(CC(C)(C)CO)C2)c(OC(F)F)n1 [Ex 11-17, N-(2-(difluoromethoxy)-6-methylpyridin-3-yl)-1-(3-hydroxy-2,2-dimethylpropyl)-3-(2-isopropylphenyl)azetidine-3-carboxamide] | 48 nM |
| COc1cc(Cl)cnc1NC(=O)C1(c2ccccc2C(C)C)CN(C(=O)CC(C)(C)C(=O)O)C1 [Ex 79-4, 4-(3-((5-chloro-3-methoxypyridin-2-yl)carbamoyl)-3-(2-isopropylphenyl)azetidin-1-yl)-2,2-dimethyl-4-oxobutanoic acid] | 123 nM |
| Cc1ccc(NC(=O)C2(c3c(C)cccc3C(C)C)CN(C(=O)CC(C)(C)C(=O)O)C2)c(OC(F)F)n1 [Ex 39-1, 4-(3-((2-(difluoromethoxy)-6-methylpyridin-3-yl)carbamoyl)-3-(2-isopropyl-6-methylphenyl)azetidin-1-yl)-2,2-dimethyl-4-oxobutanoic acid] | 51 nM |
| Cc1ccc(NC(=O)C2(c3ccccc3C(C)C)CN(C(=O)/C=C/C(=O)O)C2)c(OC(F)F)n1 [Ex 12-75, (E)-4-(3-((2-(difluoromethoxy)-6-methylpyridin-3-yl)carbamoyl)-3-(2-isopropylphenyl)azetidin-1-yl)-4-oxobut-2-enoic acid] | 50 nM |
| Cc1ccc(NC(=O)C2(c3ccccc3C(C)C)CN(C(=O)[C@H]3CNCCO3)C2)c(OC(F)F)n1 [Ex 12-42, (R)-N-(2-(difluoromethoxy)-6-methylpyridin-3-yl)-3-(2-isopropylphenyl)-1-(morpholine-2-carbonyl)azetidine-3-carboxamide] | 71 nM |
| Cc1ccc(C2(C(=O)Nc3ccc(C)nc3OC(F)F)CN(C(=O)CC(C)(C)C(=O)O)C2)c(C(C)C)c1 [Ex 39-3, 4-(3-((2-(difluoromethoxy)-6-methylpyridin-3-yl)carbamoyl)-3-(2-isopropyl-4-methylphenyl)azetidin-1-yl)-2,2-dimethyl-4-oxobutanoic acid] | 40 nM |
| Cc1ccc(NC(=O)C2(c3ccccc3C(C)C)CN(C(=O)CC3(C(=O)O)COC3)C2)c(OC(F)F)n1 [Ex 12-98, 3-(2-(3-((2-(difluoromethoxy)-6-methylpyridin-3-yl)carbamoyl)-3-(2-isopropylphenyl)azetidin-1-yl)-2-oxoethyl)oxetane-3-carboxylic acid] | 26 nM |
| Cc1ccc(NC(=O)C2(c3ccccc3C(C)C)CN(CC(C)(C)C(=O)O)C2)c(OC(F)F)n1 [Ex 11-25, 3-(3-((2-(difluoromethoxy)-6-methylpyridin-3-yl)carbamoyl)-3-(2-isopropylphenyl)azetidin-1-yl)-2,2-dimethylpropanoic acid] | 20 nM |
| Cc1ccc(NC(=O)C2(c3ccccc3C(C)C)CN(CCN(C)C)C2)c(OC(F)F)n1 [Ex 11-78, N-(2-(difluoromethoxy)-6-methylpyridin-3-yl)-1-(2-(dimethylamino)ethyl)-3-(2-isopropylphenyl)azetidine-3-carboxamide] | 191 nM |
| COc1ccc(NC(=O)C2(c3ccccc3C(C)C)CN(C(=O)OC(C)(C)C)C2)c(OC)n1 [Ex 6-1, tert-butyl 3-((2,6-dimethoxypyridin-3-yl)carbamoyl)-3-(2-isopropylphenyl)azetidine-1-carboxylate] | 605 nM |

From patent publication US12344597B2, “Alkoxy-substituted pyridinyl derivatives as LPA1 receptor antagonists and their use in the treatment of fibrosis” (IDORSIA PHARMACEUTICALS LTD, priority 2018, dated 2025)
